Experimental data reported in publication PMC6359543, “Efficacy of Azatyrosine-Phenylbutyric Hydroxamides, a Histone Deacetylase Inhibitor, on Chemotherapy-Induced Gastrointestinal Mucositis” (International Journal of Molecular Sciences, 2019).

Columns and labels:
[1] = tested on: Salmonella typhimurium TA100; type: cell-based
[2] = tested on: Salmonella typhimurium TA102; details: Positive Control: 2-aminoanthrene 5 µg /plate
Experimental: Five strains of Salmonella typhimurium, TA98, TA102, TA100, TA1537, and TA1535, were obtained from Moltox (Boone, NC, USA). Mutagenicity was evaluated by the incorporation method in the presence or absence of S9 metabolic activation. A volume of 100 µL of each test bacterial culture (10^9 cells/mL), 2 mL soft agar (0.6% agar, 0.5% NaCl, 5 mM histidine, and […], pH 7.4, 40–50 °C), 0.5 mL S9 mixture (if necessary), and AzP were mixed well in a test tube. […] The revertant colonies were counted, and a positive mutagenic response was identified when (i) the number of revertants was at least double the spontaneous yield; (ii) a statistical significance (p ≤ 0.05) was found; and (iii) a reproducible positive dose response was present.

[3] = tested on: Salmonella typhimurium TA1535; type: cell-based
[4] = tested on: Salmonella typhimurium TA1537; test: Salmonella/microsome reversion assay (Ames test), TA1537; type: cell-based
[5] = tested on: Salmonella typhimurium TA98; test: Salmonella/microsome reversion assay (Ames test), TA98; type: cell-based; details: Positive Control: 4-Nitro-o-phenylenediamine 2.5 µg / plate
male ICR mice = test: Micronucleus test; details: Cyclophosphamide 200 mg/kg
Experimental: Male ICR mice (n = 5) were administered AzP orally by gavage, at doses of 5, 50, and 500 mg/kg body weight. […] At 24, 48, and 72 h after dosing, 2-μL blood samples were collected from the tail vein onto a slide stained with acridine orange (40 μg/mL). The ratio (%) of polychromatic erythrocytes (PCEs) to total erythrocytes was determined using fluorescence microscopy. In addition, the frequency of micronucleated polychromatic erythrocytes (MNPCEs; ‰) was counted to a total of 1000 erythrocytes or PCEs per animal.

[6] = tested on: Chinese Hamster Ovary cells (CHO-K1); test: Chromosome aberration assay; type: cell-based; details: Mitomycin C 1µg/mL
Experimental: Chinese hamster ovary epithelial cells (CHO-K1, American Type Culture Collection, Manassas, VA, USA) were cultured in 6-cm dishes at a density of 2 × 10^5 cells/mL for chromosomal abnormality analysis. […] Colemid (0.1 μg/mL) was administered 3 h before trypsinization, followed by treatment with 0.9% sodium citrate at 37 °C and Carnoy’s solution (methanol:acetic acid, 3:1). The cells were stained with 3% Giemsa solution in 0.07 M phosphate buffer (pH 6.8) on glass slides. […] The data were expressed as the total mean number of chromosomal aberrations per treatment ± standard deviation (SD) from three independent experiments.

C57BL/6 mice = details: mouse, in vivo, ip, 11 mg/kg
IEC-6 cells = test: LPS-induced MAPK/Akt phosphorylation in IEC-6 cells (Western blot); type: cell-based, Rat; details: LPS 500 ng/mL, 10 min
Experimental: Figure 6 Western blotting of IEC-6 cells treated with LPS and/or AzP. (A) IEC-6 cells (1 × 10^6 cells/mL) were dispensed on 6 cm dishes and (A) treated with LPS (500 ng/mL) for 10, 20, 30, 60, and 90 min. Data expressed as means ± SD from 3 independent experiments. * p < 0.05 as compared with the resting. (B) Treatment with LPS (500 ng/mL) for 10 min as indicated. Cells were treated with the indicated concentrations of AzP (5, 10, and 20 μM) or vehicle for 30 min before treatment with LPS. Cell lysates were collected for Western blot targeting p-ERK phosphorylation (Thr202/Tyr204, B), MEK phosphorylation ([…], C), and Akt phosphorylation (Ser473, D). Data expressed as means ± SD from 3 independent experiments. ### p < 0.001 as compared with the resting, * p < 0.05, ** p < 0.01 and *** p < 0.001 as compared with the vehicle.
IEC-6 cells were incubated in different AzP concentrations with/without LPS stimulation for 24 h. The homogenate from cells or tissues was then centrifuged at 14,000× g for 10 min at 4 °C and the supernatant was collected. Protein separation was performed using 10% reducing SDS-PAGE, electrotransferred onto polyvinylidene difluoride (PVDF), and immunoblotted with antibodies against inflammatory proteins as well as β-actin as control. Densitometry was performed using BioLight software V2000.01 (Uhldingen-Mühlhofen, Germany). The optical density of specific protein was normalized to an internal control and expressed as a ratio to control.

[7] = Positive Control: 2-aminoanthrene 5 µg /plate
[8] = 3 hours without S9 metabolic activation
[9] = 24 hours without S9 metabolic activation
[10] = Positive Control: Sodium Azide 5 µg / plate

## Nc1ccc2cc3ccccc3cc2c1 [2-aminoanthrene, reference compound]
[1]; [7]
  Revertant colonies per plate (+S9) TA100: 1514.7±6.9
[2]
  Revertant colonies per plate (+S9) TA102: 1409.8±78.2
[3]; [7]
  Revertant colonies per plate (+S9) TA1535: 1182.9±81.6
[4]; [7]
  Revertant colonies per plate (+S9) TA1537: 1282.8±109

## Nc1ccc([N+](=O)[O-])cc1N [4-Nitro-o-phenylenediamine, reference compound]
[5]
  Revertant colonies per plate (-S9) TA98: 1549.3±37.6

## Nc1c2ccccc2nc2ccccc12 [9-Aminoacridine, reference compound]
[4]; Positive Control: 9-Aminoacridine 50 µg /plate
  Revertant colonies per plate (-S9) TA1537: 1671.8±184

## O=P1(N(CCCl)CCCl)NCCCO1 (stereo not drawn) [Cyclophosphamide, reference compound]
Male ICR mice; Day 1
  Reticuloctes(%): 1.60±0.12 %
Male ICR mice; Day 2
  Reticuloctes(%): 0.93±0.07 %
Male ICR mice; Day 3
  Reticuloctes(%): 1.07±0.16 %

## CO[C@@]12[C@H](COC(N)=O)C3=C(C(=O)C(C)=C(N)C3=O)N1C[C@@H]1N[C@@H]12 [Mitomycin C, reference compound]
[6]; [8]
  Aberrant cell (%) With gap: 7.67±1.15 %
  Number of cells with structural aberrations (%) B: chromosome break: 0.00±0.00%
  Number of cells with structural aberrations (%) G: chromosome gap: 0.00±0.00%
  Number of cells with structural aberrations (%) e: exchange: 2.00±1.00 %
[6]; [9]
  Aberrant cell (%) With gap: 10.00±1.73 %
  Number of cells with structural aberrations (%) B: chromosome break: 0.00±0.00%
  Number of cells with structural aberrations (%) G: chromosome gap: 0.00±0.00%
  Number of cells with structural aberrations (%) e: exchange: 4.33±2.52 %

## [N-]=[N+]=[N-].[Na+] [Sodium Azide, reference compound]
[1]; [10]
  Revertant colonies per plate (-S9) TA100: 1433.6±94.4
[3]; [10]
  Revertant colonies per plate (-S9) TA1535: 1506.7±62.3

## N.N.[Cl][Pt][Cl] [cisplatin, reference compound]
C57BL/6 mice
  Relative mean body weight (day 0 = 100%): 76.0 ± 4.7%

## lipopolysaccharide [LPS, reference compound]
IEC-6 cells
  ERK phosphorylation compared to the control: 1.8 ± 0.3 fold
